Ten molecules from ChEMBL document CHEMBL1933034, “Synthesis, docking and in vitro antimalarial evaluation of bifunctional hybrids derived from β-lactams and 7-chloroquinoline using click chemistry” (Bioorg Med Chem Lett, 2012) can be followed below.

Molecules are shown by their SMILES.

The test system of the assay is Plasmodium falciparum. Kind of assay: Antimalarial activity against chloroquine-resistant ring stage of Plasmodium falciparum W2 infected in human erythrocytes assessed as inhibition of parasitemia after 48 hrs by FACS analysis. In kind it is functional, organism-based. Conditions: W2, 48 h. In general terms: Flow cytometry measures light scatter and fluorescence of single cells or particles in a stream.
As to `Cc1ccc(N2C(=O)[C@@H](NCc3cn(-c4ccnc5cc(Cl)ccc45)nn3)[C@H]2/C=C/c2ccccc2)cc1`, the IC50 was more than 10000 nM.

Regarding `O=C1[C@@H](NCc2cn(-c3ccnc4cc(Cl)ccc34)nn2)[C@@H](/C=C/c2ccccc2)N1c1ccccc1`, the IC50 was determined as 1900 nM.

As to `O=C1[C@@H](NCc2cn(-c3ccnc4cc(Cl)ccc34)nn2)[C@@H](/C=C/c2ccccc2)N1c1ccc(F)cc1`, the IC50 was more than 10000 nM.

Take `O=C1[C@@H](NCc2cn(-c3ccnc4cc(Cl)ccc34)nn2)[C@@H](/C=C/c2ccccc2)N1C1CCCCC1`: the half-inhibitory concentration (IC50) amounted to 4300 nM.

For the molecule `O=C1[C@@H](NCc2cn(-c3ccnc4cc(Cl)ccc34)nn2)[C@@H](/C=C/c2ccccc2)N1Cc1ccccc1`, the concentration for half-maximal inhibition (IC50) is 5900 nM.

On to `Cc1ccc(N2C(=O)[C@@H](N(Cc3cn(-c4ccnc5cc(Cl)ccc45)nn3)Cc3cn(-c4ccnc5cc(Cl)ccc45)nn3)[C@H]2/C=C/c2ccccc2)cc1`, for which the IC50 turned out to be 1500 nM.

Regarding `O=C1[C@@H](N(Cc2cn(-c3ccnc4cc(Cl)ccc34)nn2)Cc2cn(-c3ccnc4cc(Cl)ccc34)nn2)[C@@H](/C=C/c2ccccc2)N1c1ccccc1`, the IC50 was found to be 2100 nM.

In the case of `O=C1[C@@H](N(Cc2cn(-c3ccnc4cc(Cl)ccc34)nn2)Cc2cn(-c3ccnc4cc(Cl)ccc34)nn2)[C@@H](/C=C/c2ccccc2)N1c1ccc(F)cc1`, the concentration for half-maximal inhibition (IC50) came out at 1100 nM.

Consider `O=C1[C@@H](N(Cc2cn(-c3ccnc4cc(Cl)ccc34)nn2)Cc2cn(-c3ccnc4cc(Cl)ccc34)nn2)[C@@H](/C=C/c2ccccc2)N1C1CCCCC1`, for which the IC50 was determined as 2800 nM.

`O=C1[C@@H](N(Cc2cn(-c3ccnc4cc(Cl)ccc34)nn2)Cc2cn(-c3ccnc4cc(Cl)ccc34)nn2)[C@@H](/C=C/c2ccccc2)N1Cc1ccccc1`: the IC50 was 2700 nM.

The IC50 is the point on the concentration scale where inhibition reaches its midpoint.
